Ends that are not written are not given here. Peptide text beside a SMILES is read from it.
Key:
293T-ACE2^+ cells = assay: Cytotoxicity by CCK-8 in 293T-ACE2^+ cells; assay type: cell-based, human; settings: 1 nM to 100 μM, 48 h; FIGS. 9A-9C, 10A-10C
Method: ; • (3) The cells were washed once with PBS after discarding supernatant after culturing, 120 μL of cell counting kit-8 (CCK-8) working solution (CCK-8 working solution is obtained by mixing CCK8 stock solution and complete medium in a volume ratio of 1:10, CCK8 stock solution was purchased from Dojindo Molecular Technologies) was added to each well. After mixing, the system was incubated at 37° C. for 3 h, then the absorbance values at 450 nm and 630 nm (reference wavelength) were detected to calculate the cell viability.

[1] = target: spike protein of the SARS-CoV-2 pseudovirus (PSV) (SARS-CoV-2), P0DTC2; assay: cell-based or functional assay

Molecule | effect on 293T-ACE2^+ cells viability (CCK-8) (293T-ACE2^+ cells) | neutralization ability to SARS-CoV-2 pseudovirus [1] [%]
GDLFDDSNLDPFRDRISTRR [KVp-R14N] | not significant | 
CC(C)C[C@H](NC(=O)[C@@H](NC(=O)[C@H](CO)NC(=O)[C@H](CO)NC(=O)[C@H](CC(=O)O)NC(=O)[C@H](Cc1ccccc1)NC(=O)[C@@H](NC(=O)[C@H](CC(=O)O)NC(=O)[C@H](CCCNC(=N)N)NC(=O)[C@@H]1CCCN1C(=O)[C@H](Cc1ccc(O)cc1)NC(=O)[C@H](Cc1ccc(O)cc1)NC(=O)[C@@H](NC(=O)CNC(=O)[C@H](CC(=O)O)NC(=O)CNC(=O)[C@@H]1CCCN1C(=O)[C@@H]1CCCN1C(=O)[C@@H]1CCCN1C(=O)[C@@H]1CCCN1C(=O)[C@H](CS)NC(=O)[C@@H](N)CS)C(C)C)C(C)C)C(C)C)C(=O)N[C@@H](CC(=O)O)C(=O)N[C@@H](CO)C(=O)N[C@H](C(=O)N[C@@H](CCC(N)=O)C(=O)N[C@@H](CCCNC(=N)N)C(=O)O)[C@@H](C)O [KVp-N1] (H-CCPPPPGDGVYYPRDVFDSSVLDSTQR-OH) | not significant | 
GDGVYYPRDVFDSSVLDSTQR [KVp-N1N] | not significant | 
CC[C@H](C)[C@H](NC(=O)[C@H](CCCNC(=N)N)NC(=O)[C@H](CC(=O)O)NC(=O)[C@H](CCCNC(=N)N)NC(=O)[C@H](Cc1ccccc1)NC(=O)[C@@H]1CCCN1C(=O)[C@H](CC(=O)O)NC(=O)[C@H](CC(C)C)NC(=O)[C@H](CC(N)=O)NC(=O)[C@H](CO)NC(=O)[C@H](CC(=O)O)NC(=O)[C@H](CC(=O)O)NC(=O)[C@H](Cc1ccccc1)NC(=O)[C@H](CC(C)C)NC(=O)[C@H](CC(=O)O)NC(=O)CNC(=O)[C@@H]1CCCN1C(=O)[C@@H]1CCCN1C(=O)[C@@H]1CCCN1C(=O)[C@@H]1CCCN1C(=O)[C@H](CS)NC(=O)[C@@H](N)CS)C(=O)N[C@@H](CO)C(=O)N[C@H](C(=O)N[C@@H](CCCNC(=N)N)C(=O)N[C@@H](CCCNC(=N)N)C(=O)O)[C@@H](C)O [KVp-R14] (H-CCPPPPGDLFDDSNLDPFRDRISTRR-OH) | not significant | 
CCPPPPGDGVYYPRDVFDSSVLDSTQR (modifications not checked) [polypeptide KVp-N1] |  | 50
CCPPPPGDLFDDSNLDPFRDRISTRR (modifications not checked) [polypeptide KVp-R14] |  | 50

Reference: US20260234196A1 (priority 2021, published 2026)
